Assay results as given in article PMC7037548, “Microbial Transformation of Prenylquercetins by Mucor hiemalis” (Molecules, 2020).
Converted amounts (≈) assume the structure as drawn.

Test: Water solubility test
Type: physicochemical
Settings: for solubility at 10 min: water, thermodynamic from solid
Description: The solubility of prenylquercetins and their glucosides were determined based on the previously reported method with some modifications. Briefly, each compound (4 mg) was dissolved in 1 mL of distilled water at room temperature followed by sonication for 10 min and centrifugation at 3600 rpm for 5 min at room temperature. Then the concentrations of the compounds in the supernatant were measured based on their peak areas utilizing calibration curves determined by the HPLC of authentic samples.

Structure (SMILES) | solubility at 10 min | Water solubility, comparison in words | Solubility (water solubility) (distilled water, room temperature, 4 mg in 1 mL, sonication 10 min, centrifugation, supernatant by HPLC)
O=c1c(O)c(-c2ccc(O)c(O)c2)oc2cc(O)cc(O)c12 [Quercetin] | – | – | 0.036 mg/mL (≈ 119 µM)
CC(C)=CCc1cc(O)c(O)cc1-c1oc2c(CC=C(C)C)c(O)cc(O)c2c(=O)c1O [Compound 3, 8,6′-diprenylquercetin] | 20 µg/mL (≈ 45.6 µM) | – | –
CC(C)=CCc1cc(O)c(O)cc1-c1oc2cc(O)cc(O)c2c(=O)c1O [Compound 2, 6′-prenylquercetin] | 63 µg/mL (≈ 170 µM) | – | –
CC(C)=CCc1c(O[C@@H]2O[C@H](CO)[C@@H](O)[C@H](O)[C@H]2O)cc(O)c2c(=O)c(O)c(-c3ccc(O)c(O)c3)oc12 [Compound 4, 8-Prenylquercetin 7-O-β-D-glucopyranoside] | 501 µg/mL (≈ 941 µM) | – | –
CC(C)=CCc1c(O)cc(O)c2c(=O)c(O)c(-c3ccc(O)c(O)c3)oc12 [Compound 1, 8-prenylquercetin] | 13 µg/mL (≈ 35.1 µM) | – | –

The next lines start with results.

solubility at 10 min | Water solubility, comparison in words | Structure (SMILES) | Solubility (water solubility) (distilled water, room temperature, 4 mg in 1 mL, sonication 10 min, centrifugation, supernatant by HPLC)
3640 µg/mL (≈ 6830 µM) | – | CC(C)=CCc1cc(O[C@@H]2O[C@H](CO)[C@@H](O)[C@H](O)[C@H]2O)c(O)cc1-c1oc2cc(O)cc(O)c2c(=O)c1O [Compound 7, 6′-Prenylquercetin 4′-O-β-D-glucopyranoside] | –
385 µg/mL (≈ 723 µM) | – | CC(C)=CCc1c(O)cc(O)c2c(=O)c(O[C@@H]3O[C@H](CO)[C@@H](O)[C@H](O)[C@H]3O)c(-c3ccc(O)c(O)c3)oc12 [Compound 5, 8-Prenylquercetin 3-O-β-D-glucopyranoside] | –
> 4000 µg/mL | higher solubility than metabolite 9 | CC(C)=CCc1cc(O[C@@H]2O[C@H](CO)[C@@H](O)[C@H](O)[C@H]2O)c(O)cc1-c1oc2c(CC=C(C)C)c(O[C@@H]3O[C@H](CO)[C@@H](O)[C@H](O)[C@H]3O)cc(O)c2c(=O)c1O [Compound 8, 8,6′-Diprenylquercetin 7,4′-O-β-D-diglucopyranoside] | –
613 µg/mL (≈ 1020 µM) | – | CC(C)=CCc1cc(O)c(O)cc1-c1oc2c(CC=C(C)C)c(O[C@@H]3O[C@H](CO)[C@@H](O)[C@H](O)[C@H]3O)cc(O)c2c(=O)c1O [Compound 9, 8,6′-Diprenylquercetin 7-O-β-D-glucopyranoside] | –
1980 µg/mL (≈ 3710 µM) | – | CC(C)=CCc1cc(O)c(O)cc1-c1oc2cc(O[C@@H]3O[C@H](CO)[C@@H](O)[C@H](O)[C@H]3O)cc(O)c2c(=O)c1O [Compound 6, 6′-Prenylquercetin 7-O-β-D-glucopyranoside] | –
